# “Also recorded” adds a separate entry of the source.
# Assays:
# [1] = biological target: T1, holo-CRBP1 (Homo sapiens, UniProt P09455); test: High-throughput screening for CRBP1 ligands; assay type: binding; conditions: 986 compounds at 5 μM, 1 μM holo-CRBP1
# T1 construct: made in house
# T1 sequence (P09455 1-135): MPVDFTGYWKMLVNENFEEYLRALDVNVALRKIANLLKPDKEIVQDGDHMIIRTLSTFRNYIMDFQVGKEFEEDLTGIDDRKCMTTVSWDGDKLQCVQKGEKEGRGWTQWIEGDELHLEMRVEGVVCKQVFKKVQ
# Procedure: The principle of the fluorescence binding assays described above was adapted for the HTS in a 96-well plate format. Each well contained 0.2 mL of 20 mM Tris/HCl, pH 7.4 and 1 μM of holo-CRBP1. Tested compounds from two independent libraries (Bioactive Lipid I Screening Library form Cayman Chemicals and Screen-Well Bioactive Lipid Library from Enzo Life Science, total of 986 chemicals) were delivered in dimethyl sulfoxide (DMSO) to the final concentration of 5 μM. After 15 min of incubation at room temperature (RT), the samples were excited at 285 nm, and the fluorescence signals from CRBP1 (at 350 nm) and atROL (at 480 nm) were recorded in a Flexstation3 microplate reader (Molecular Devices). Changes in the fluorescence emissions were evaluated by calculating ratio between signals at 480 and 350 nm. To eliminate false positives, only those wells in which the increase in protein fluorescence was accompanied by proportional decline in the fluorescence of atROL were considered as potential hits.
# To search for compounds interacting with CRBP1, we developed an HTS strategy that minimalized experimental bias associated with investigating the binding of hydrophobic ligands to a protein specialized for interaction with small lipophilic molecules. It is based on the fluorescence properties of CRBP1 in complex with its natural ligand, atROL. […]
# [2] = biological target: cannabinoid receptor 1 (Homo sapiens, UniProt P21554); conditions: cited from earlier work
# [3] = biological target: T2, CRBP4 (Homo sapiens, UniProt Q96R05); test: Crystal structure of CRBP4 in complex with abn-CBD; assay type: binding; conditions: crystal structure PDB No. 6E6K
# T2 construct: thrombin cut site (residual residues after digestion) (C); 6x histidine tag (C, cleaved yes); made in house; host or cells: E. coli BL21 (DE3) (as for CRBP2)
# T2 sequence (Q96R05 1-134): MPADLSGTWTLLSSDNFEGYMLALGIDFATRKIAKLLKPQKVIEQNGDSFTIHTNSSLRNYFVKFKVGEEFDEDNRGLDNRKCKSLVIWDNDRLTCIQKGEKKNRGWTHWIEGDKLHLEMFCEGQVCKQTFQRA
# Source text: The cDNA of human CRBP4 was purchased from Origene Technologies. The introduction of a thrombin cut site at the C-terminus was achieved by PCR amplification of the cDNA. The PCR product was subcloned into pET30b vector. For the most part, CRBP4 was expressed and purified as described for CRBP2. However, after digestion with thrombin and reloading onto HisTrap column, the unbound fraction of the protein was further purified on a HiTrap SP HP ion exchanger column (GE Healthcare). CRBP4 was loaded in 10 mM Tris/HCl buffer, pH 8.0 buffer, and subsequently eluted with a gradient of NaCl (0-0.5 M) over 30 min at a flow rate 1.0 mL min^−1. Purified CRBP4 was concentrated to 6 mg mL^−1 and liquated at −80° C.
# Crystals of CRBP1 in complex abn-CBD and its derivatives (abn-CBDO or CBDO) were grown essentially as described by Silvaroli et al (ACS Chem Biol. 2019, 15; 14(3)). The apo protein at 3 mg mL-1 was preincubated with 300 μM of a ligand in 10 mM Tris-HCl buffer, pH 8.0, 150 mM NaCl for 15 min on ice. This sample (1 μL) was mixed in 1:1 ratio with a crystallization solution composed of 0.1 M BisTris, pH 5.5, and 25% poly(ethylene glycol) (PEG) 3350 (w/v). […]
# [4] = biological target: T3, CRBP2 (Homo sapiens, UniProt P50120); test: Fluorescence-binding assay with CRBP2
# T3 construct: 6x histidine tag (C, cleaved yes); thrombin cut site (residual residues after digestion) (C); made in house; host or cells: E. coli BL21 (DE3)
# T3 sequence (P50120 1-134): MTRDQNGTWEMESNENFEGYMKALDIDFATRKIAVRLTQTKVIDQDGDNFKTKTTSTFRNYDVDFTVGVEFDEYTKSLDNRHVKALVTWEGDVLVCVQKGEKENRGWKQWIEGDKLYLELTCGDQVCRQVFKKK
# Chain of cannabinoid receptor 1 (P21554 whole entry, species assumed): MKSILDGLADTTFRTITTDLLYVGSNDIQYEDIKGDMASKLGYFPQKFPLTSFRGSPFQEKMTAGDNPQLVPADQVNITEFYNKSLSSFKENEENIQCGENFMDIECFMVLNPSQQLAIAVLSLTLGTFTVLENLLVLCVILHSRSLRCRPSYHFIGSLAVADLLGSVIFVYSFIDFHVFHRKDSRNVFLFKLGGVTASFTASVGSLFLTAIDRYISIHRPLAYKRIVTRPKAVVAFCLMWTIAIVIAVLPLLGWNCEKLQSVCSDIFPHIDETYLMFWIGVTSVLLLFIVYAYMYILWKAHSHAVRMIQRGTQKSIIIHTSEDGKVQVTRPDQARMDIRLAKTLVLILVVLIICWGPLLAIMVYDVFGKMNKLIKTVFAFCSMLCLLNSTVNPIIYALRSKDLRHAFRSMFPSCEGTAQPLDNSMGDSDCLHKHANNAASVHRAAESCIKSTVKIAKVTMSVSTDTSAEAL
compound,measurement,setting,value
"C=C(C)[C@@H]1CCC(C)=C[C@H]1c1c(O)cc(O)cc1CCCCC [abn-CBD, 4-[(1R,6R)-3-Methyl-6-prop-1-en-2-ylcyclohex-2-en-1-yl]-5-pentylbenzene-1,3-diol]",HTS result,[1],unique hit; also recorded: single hit
same,interaction with cannabinoid receptor 1,[2],does not interact
same,binding to CRBP4,[3],bind abn-CBD similarly to CRBP1
same,interaction with CRBP2,[4],does not interact; also recorded: absence of interaction

# Reference: US20210228500A1, “CELLULAR RETINOID BINDING PROTEIN ANTAGONISTS AND USES THEREOF” (CASE WESTERN RESRVE UNIVERSITY, priority 2018, published 2021)
